Data: patent US10669272B2, “Substituted naphthyridinone compounds useful as T cell activators” (BRISTOL-MYERS SQUIBB COMPANY, priority 2018, dated 2020)
Where two headings read alike, the source gives them in different places.

Experiments:
human DGKα = biological target: T1, human DGKα (Homo sapiens, UniProt P23743); test: DGKα LIPGLO assay (extruded liposome substrate), in vitro DGK inhibition; format: biochemical; conditions: read-out: DGKa LIPGLO IC50
T1 construct: TVMV protease cleavage site (C); Hexa-His (C); made in house; host or cells: Sf9 insect cells (baculovirus, Bac-to-Bac)

human DGKζ = biological target: T2, human DGKζ (Homo sapiens, UniProt Q13574); test: DGKζ LIPGLO assay (extruded liposome substrate), in vitro DGK inhibition; format: biochemical; conditions: read-out: DGKz LIPGLO IC50
T2 construct: TVMV protease cleavage site (C); Hexa-His (C); made in house; host or cells: Sf9 insect cells (baculovirus, Bac-to-Bac)
T2 sequence (Q13574 with tags, fused parts or gaps isoform Q13574-4): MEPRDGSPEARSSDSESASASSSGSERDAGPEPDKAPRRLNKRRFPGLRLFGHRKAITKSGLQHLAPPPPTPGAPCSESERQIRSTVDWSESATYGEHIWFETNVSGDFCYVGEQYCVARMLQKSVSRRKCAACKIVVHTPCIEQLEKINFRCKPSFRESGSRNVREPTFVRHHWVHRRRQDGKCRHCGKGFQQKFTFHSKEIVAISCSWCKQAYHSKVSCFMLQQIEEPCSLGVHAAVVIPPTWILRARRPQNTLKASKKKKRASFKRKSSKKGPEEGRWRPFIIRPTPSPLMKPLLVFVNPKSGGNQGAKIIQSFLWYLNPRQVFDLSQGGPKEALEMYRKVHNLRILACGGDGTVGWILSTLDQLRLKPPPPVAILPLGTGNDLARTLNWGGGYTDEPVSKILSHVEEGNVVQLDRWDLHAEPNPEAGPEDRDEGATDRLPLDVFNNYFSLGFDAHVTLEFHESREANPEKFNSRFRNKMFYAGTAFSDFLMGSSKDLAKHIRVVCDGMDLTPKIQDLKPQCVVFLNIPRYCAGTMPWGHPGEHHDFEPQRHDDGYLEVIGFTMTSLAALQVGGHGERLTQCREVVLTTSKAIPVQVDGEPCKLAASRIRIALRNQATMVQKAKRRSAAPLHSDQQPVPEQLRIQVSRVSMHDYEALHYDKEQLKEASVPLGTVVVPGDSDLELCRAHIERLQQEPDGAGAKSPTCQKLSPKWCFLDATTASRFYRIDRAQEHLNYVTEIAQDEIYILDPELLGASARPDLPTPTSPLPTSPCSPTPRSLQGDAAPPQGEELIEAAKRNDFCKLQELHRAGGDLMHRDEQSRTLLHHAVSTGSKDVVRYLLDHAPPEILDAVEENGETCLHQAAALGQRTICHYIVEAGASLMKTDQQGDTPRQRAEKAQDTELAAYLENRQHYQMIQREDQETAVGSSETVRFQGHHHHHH

T1 sequence (P23743 with tags, fused parts or gaps): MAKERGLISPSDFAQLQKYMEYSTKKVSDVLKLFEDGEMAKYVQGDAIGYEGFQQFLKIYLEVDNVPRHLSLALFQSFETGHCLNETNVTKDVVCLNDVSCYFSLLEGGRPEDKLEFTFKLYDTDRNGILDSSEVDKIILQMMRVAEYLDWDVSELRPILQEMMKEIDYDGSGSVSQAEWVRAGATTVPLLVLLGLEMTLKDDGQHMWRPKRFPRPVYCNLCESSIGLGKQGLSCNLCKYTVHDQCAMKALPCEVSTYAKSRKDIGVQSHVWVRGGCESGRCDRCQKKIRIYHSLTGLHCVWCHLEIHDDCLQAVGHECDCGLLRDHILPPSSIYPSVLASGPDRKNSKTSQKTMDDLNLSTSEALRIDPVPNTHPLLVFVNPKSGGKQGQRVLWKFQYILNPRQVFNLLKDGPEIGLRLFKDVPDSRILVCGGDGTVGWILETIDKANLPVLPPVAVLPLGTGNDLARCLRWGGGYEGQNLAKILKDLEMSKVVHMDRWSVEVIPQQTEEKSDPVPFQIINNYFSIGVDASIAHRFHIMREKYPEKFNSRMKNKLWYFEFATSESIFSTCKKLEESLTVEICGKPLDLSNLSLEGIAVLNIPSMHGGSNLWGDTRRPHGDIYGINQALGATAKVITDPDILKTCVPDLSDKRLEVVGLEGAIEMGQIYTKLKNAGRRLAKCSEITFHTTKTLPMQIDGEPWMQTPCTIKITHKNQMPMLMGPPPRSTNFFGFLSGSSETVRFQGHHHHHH

| Compound | IC50 (human DGKα; liposome (LIPGLO) assay) [nM] | IC50 (human DGKζ; liposome (LIPGLO) assay) [µM] | IC50 (human DGKα; DGKα liposome (LIPGLO) assay) [nM] | IC50 (human DGKζ; DGKζ liposome (LIPGLO) assay) [µM] |
| --- | --- | --- | --- | --- |
| C[C@@H]1CN(c2cc(=O)n(C)c3ccc(C#N)nc23)[C@@H](C)CN1C(c1ccc(Cl)cc1)c1ccc2c(c1)OC(F)(F)O2 (single isomer, unassigned) [Example 656] | 23000 | 4 |  |  |
| CCC(c1ccc(F)c(F)c1)N1C[C@H](C)N(c2cc(=O)n(C)c3ccc(C#N)nc23)C[C@H]1C (single isomer, unassigned) [Example 411] | 22000 | 19 |  |  |
| C[C@@H]1CN(c2cc(=O)n(C)c3ccc(C#N)nc23)[C@@H](C)CN1C(c1cccc(F)c1)c1ccccn1 (stereo partly drawn) [Example 404, 8-((2S,5R)-4-((3-fluorophenyl)(pyridin-2-yl)methyl)-2,5-dimethylpiperazin-1-yl)-5-methyl-6-oxo-5,6-dihydro-1,5-naphthyridine-2-carbonitrile] | 360 | 4.1 |  |  |
| Cn1c(=O)cc(N2CCN(Cc3ccc(F)cc3Cl)C(COC(F)F)C2)c2nc(C#N)ccc21 (single isomer, unassigned) [Example 1184, 8-(4-(2-chloro-4-fluorobenzyl)-3-((difluoromethoxy)methyl)piperazin-1-yl)-5-methyl-6-oxo-5,6-dihydro-1,5-naphthyridine-2-carbonitrile] | 110000 | 11 |  |  |
| C[C@@H]1CN(c2c(C#N)c(=O)n(C)c3ccc(C#N)nc23)[C@@H](C)CN1C(c1ccc(F)cc1)c1cn(C)cn1 (single isomer, unassigned) [Example 852] |  |  | 1300 | 5.7 |
| CCOC[C@@H]1CN(c2cc(=O)n(C)c3ccc(C#N)nc23)[C@@H](C)CN1C(C)c1ccc(OC(F)(F)F)cc1 (single isomer, unassigned) [Example 1398] | 5500 | 1.6 |  |  |
| Cc1nccc(C(c2ccc(F)cc2)N2CCN(c3c(C#N)c(=O)n(C)c4ccc(C#N)nc34)C[C@H]2C)n1 (stereo partly drawn) [Example 315, 8-((3R)-4-((4-fluorophenyl)(2-methylpyrimidin-4-yl)methyl)-3-methylpiperazin-1-yl)-5-methyl-6-oxo-5,6-dihydro-1,5-naphthyridine-2,7-dicarbonitrile] | 4100 | 1.8 |  |  |
| CC(c1ccc(C(F)(F)F)cc1)N1C[C@H](C)N(c2c(C#N)c(=O)n(C)c3ccc(C#N)nc23)C[C@H]1C (some centres unmarked) [Example 788] |  |  | 4800 | > 250 |
| C[C@@H]1CN(c2c(C#N)c(=O)n(C)c3ccc(C#N)nc23)CCN1C(c1ccc(Cl)cc1)c1ccc(C#N)cc1 (single isomer, unassigned) [Example 873] |  |  | 2600 | 7.2 |
| C[C@@H]1CN(c2cc(=O)n(C)c3ccc(C#N)nc23)[C@@H](C)CN1C(CF)c1ccc(F)cc1 (mixture of isomers) [Example 556, 8-[(2S,5R)-4-[2-fluoro-1-(4-fluorophenyl)ethyl]-2,5-dimethylpiperazin-1-yl]-5-methyl-6-oxo-5,6-dihydro-1,5-naphthyridine-2-carbonitrile] | 2600 | 6 |  |  |
| Cn1c(=O)cc(N2CC(C3CC3)N(C(c3ccc(F)cc3)c3ccc(F)cc3)CC2C2CC2)c2nc(C#N)ccc21 (single isomer, unassigned) [Example 153, 8-(4-(bis(4-fluorophenyl)methyl)-2,5-dicyclopropylpiperazin-1-yl)-5-methyl-6-oxo-5,6-dihydro-1,5-naphthyridine-2-carbonitrile] | 240000 | 240 |  |  |
| CC[C@@H]1CN(c2cc(=O)n(C)c3ccc(C#N)nc23)[C@@H](C)CN1C(C)c1ccc(C(F)(F)F)cc1 (single isomer, unassigned) [Example 1094] | 460 | 2.1 |  |  |
| CC(c1ccc(C(=O)O)cc1)N1C[C@H](C)N(c2c(C#N)c(=O)n(C)c3ccc(C#N)nc23)C[C@H]1C (some centres unmarked) [Example 787] |  |  | 200000 | 83 |
| C[C@@H]1CN(c2c(C#N)c(=O)n(C)c3ccc(C#N)nc23)CCN1C(c1ccc(Cl)cc1)c1ccncn1 (single isomer, unassigned) [Example 320] | 9300 | 28 |  |  |
| C[C@@H]1CN(c2c(C#N)c(=O)n(C)c3ccc(C#N)nc23)CCN1C(c1ccc(Cl)cc1)c1ccc(F)cn1 (single isomer, unassigned) [Example 901] |  |  | 390 | 1.7 |
| CC(C)Oc1cccc(CN2C[C@H](C)N(c3cc(=O)n(C)c4ccc(C#N)nc34)C[C@H]2C)c1 [Example 594] | 7000 | 1.4 |  |  |
| Cc1ncc(C(c2ccc(Cl)cc2)N2CCN(c3c(C#N)c(=O)n(C)c4ccc(C#N)nc34)C[C@H]2C)cn1 (stereo partly drawn) [Example 314, 8-((3R)-4-((4-chlorophenyl)(2-methylpyrimidin-5-yl)methyl)-3-methylpiperazin-1-yl)-5-methyl-6-oxo-5,6-dihydro-1,5-naphthyridine-2,7-dicarbonitrile] | 8500 | 31 |  |  |
| CC(=O)N1CCOc2c(CN3C[C@H](C)N(c4cc(=O)n(C)c5ccc(C#N)nc45)C[C@H]3C)cccc21 [Example 631] | 1400 | 4.3 |  |  |
| C[C@@H]1CN(c2cc(=O)n(C)c3ccc(C#N)nc23)[C@@H](C)CN1Cc1ccc(OC(F)F)cc1 [Example 588] | 91 | 7.4 |  |  |
| CC[C@@H]1CN(c2cc(=O)n(C)c3ccc(C#N)nc23)[C@@H](C)CN1C(CC1CCCCC1)c1ccc(OC(F)(F)F)cc1 (some centres unmarked) [Example 1195] | 830 | 0.28 |  |  |

| Compound | IC50 (human DGKα; liposome (LIPGLO) assay) [nM] | IC50 (human DGKζ; liposome (LIPGLO) assay) [µM] | IC50 (human DGKα; DGKα liposome (LIPGLO) assay) [nM] | IC50 (human DGKζ; DGKζ liposome (LIPGLO) assay) [µM] |
| --- | --- | --- | --- | --- |
| CC(c1cc(F)c(F)c(F)c1)N1C[C@H](C)N(c2cc(=O)n(C)c3ccc(C#N)nc23)C[C@H]1C (single isomer, unassigned) [Example 1241] | 3800 | 0.6 |  |  |
| CCC(c1ccc(OC(F)(F)F)cc1)N1C[C@H](CC)N(c2cc(=O)n(C)c3ccc(C#N)nc23)C[C@H]1CC (single isomer, unassigned) [Example 1059] | 9 | 0.044 |  |  |
| Cc1cc(OC(F)(F)F)ccc1CN1C[C@H](C)N(c2cc(=O)n(C)c3ccc(C#N)nc23)C[C@H]1C [Example 608] | 1600 | 9.2 |  |  |
| Cn1c(=O)c(C#N)c(N2CCN(C(c3ccc(F)cc3)c3ccc(F)cc3)C(C(N)=O)C2)c2nc(C#N)ccc21 (single isomer, unassigned) [Example 58, 1-(bis (4-fluorophenyl)methyl)-4-(3,6-dicyano-1-methyl-2-oxo-1,2-dihydro-1,5-naphthyridin-4-yl)piperazine-2-carboxamide] | 7200 | 180 |  |  |
| COC[C@@H]1CN(c2cc(=O)n(C)c3ccc(C#N)nc23)[C@@H](C)CN1C(C)c1ccc(OC(F)(F)F)cc1 (single isomer, unassigned) [Example 1163] | 10000 | 7.5 |  |  |
| C[C@@H]1CN(c2c(C#N)c(=O)n(C)c3ccc(C#N)nc23)CCN1C(c1ccc(F)cc1)c1ccncn1 (single isomer, unassigned) [Example 312] | 710 | 3.4 |  |  |
| CC(c1ccc(C(F)(F)F)cc1F)N1C[C@H](C)N(c2cc(=O)n(C)c3ccc(C#N)nc23)C[C@H]1C (single isomer, unassigned) [Example 412] | 12000 | 13 |  |  |
| C[C@@H]1CN(c2cc(=O)n(C)c3ccc(C#N)nc23)[C@@H](C)CN1Cc1cccc2c1N(C)C(=O)CO2 [Example 635] | 8000 | 150 |  |  |
| CC[C@@H]1CN(c2cc(=O)n(C)c3ccc(C#N)nc23)[C@@H](C)CN1C(C)c1ccc(OC(F)(F)F)cc1F (single isomer, unassigned) [Example 1096] | 2200 | 1.4 |  |  |
| C[C@@H]1CN(c2cc(=O)n(C)c3ccc(C#N)nc23)[C@@H](C)CN1C(c1ccc(F)cc1)c1ccccc1N1CCOCC1 (single isomer, unassigned) [Example 664] | > 250000 | 4.5 |  |  |
| CC(c1ccc(OC(F)F)cc1)N1C[C@H](C)N(c2c(C#N)c(=O)n(C)c3ccc(C#N)nc23)C[C@H]1C (single isomer, unassigned) [Example 1376] | 840 | 17 |  |  |
| C[C@@H]1CN(c2c(C#N)c(=O)n(C)c3ccc(C#N)nc23)CCN1C(c1ccc(Cl)cc1)c1ccc(Cl)cn1 (some centres unmarked) [Example 931] |  |  | 800 | 2.7 |
| C[C@@H]1CN(c2c(C#N)c(=O)n(C)c3ccc(C#N)nc23)CCN1C(c1ccc(F)cc1)c1cnccn1 (some centres unmarked) [Example 943] |  |  | 1100 | 6.7 |
| COc1cc(F)ccc1C(c1ccc(F)cc1)N1C[C@H](C)N(c2c([N+](=O)[O-])c(=O)n(C)c3ccc(C#N)nc23)C[C@H]1C (single isomer, unassigned) [Example 121] | 240000 | 52 |  |  |
| Cc1ccc(C(c2cccc(F)c2)N2CCN(c3c(C#N)c(=O)n(C)c4ccc(C#N)nc34)C[C@H]2C)nc1 (single isomer, unassigned) [Example 912] |  |  | 2100 | 0.58 |
| C[C@@H]1CN(c2cc(=O)n(C)c3ccc(C#N)nc23)[C@@H](C)CN1C(c1ccc(F)cc1)c1cccc2ccnn12 (single isomer, unassigned) [Example 694] | 840 | 0.12 |  |  |
| C[C@@H]1CN(C(c2ccc(F)cc2)c2ccc(C#N)cc2)[C@@H](CO)CN1c1cc(=O)n(C)c2ccc(C#N)nc12 (single isomer, unassigned) [Example 1177] | 10000 | 0.62 |  |  |
| C[C@@H]1CN(c2c(C#N)c(=O)n(C)c3ccc(C#N)nc23)CCN1C(c1ccc(F)cc1)c1cccc2c1OC(C)(C)C2 (single isomer, unassigned) [Example 935] |  |  | 1900 | 1.8 |
| Cn1c(=O)cc(N2CCN(C(c3ccc(F)cc3)c3ccc(F)cc3)C(COC(F)F)C2)c2nc(C#N)ccc21 (single isomer, unassigned) [Example 1186] | > 250000 | 30 |  |  |
| CC[C@@H]1CN(c2cc(=O)n(C)c3ccc(C#N)nc23)[C@@H](C)CN1C(C)c1ccc(Cl)cc1F (single isomer, unassigned) [Example 1353] | 460 | 0.51 |  |  |
